In PubChem BioAssay AID248 (DTP/NCI, 2004):
Inconclusive results and toxic doses are left out.

Tested on: L1210 leukemia ip in BDF1 mice, survival T/C
Test: NCI In Vivo Anticancer Drug Screen. Data for tumor model L1210 Leukemia (intraperitoneal) in B6D2F1 (BDF1) mice
Conditions: endpoint: mean survival time, higher = longer survival
Summary of the method: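 Each compound was tested against a transplantable tumor grown in mice. The endpoint was survival, with treated animals benchmarked against vehicle controls as a simple ratio.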

[1] = dose: 100.0 mg/kg/injection, schedule: Q01DX001 (ip), vehicle: carboxymethylcellulose (CMC)
[2] = dose: 200.0 mg/kg/injection, schedule: Q01DX001 (ip), vehicle: carboxymethylcellulose (CMC)
[3] = dose: 400.0 mg/kg/injection, schedule: Q01DX001 (ip), vehicle: carboxymethylcellulose (CMC)
[4] = dose: 100.0 mg/kg/injection, schedule: Q01DX001 (ip), vehicle: other
[5] = dose: 200.0 mg/kg/injection, schedule: Q01DX001 (ip), vehicle: other
[6] = dose: 400.0 mg/kg/injection, schedule: Q01DX001 (ip), vehicle: other
[7] = dose: 100.0 mg/kg/injection, schedule: Q01DX001 (ip), vehicle: saline
[8] = dose: 200.0 mg/kg/injection, schedule: Q01DX001 (ip), vehicle: saline
[9] = dose: 400.0 mg/kg/injection, schedule: Q01DX001 (ip), vehicle: saline
[10] = dose: 25.0 mg/kg/injection, schedule: Q04DX003 (ip), vehicle: saline with Tween-80
[11] = dose: 50.0 mg/kg/injection, schedule: Q04DX003 (ip), vehicle: saline with Tween-80
[12] = dose: 100.0 mg/kg/injection, schedule: Q04DX003 (ip), vehicle: saline with Tween-80
[13] = dose: 50.0 mg/kg/injection, schedule: Q01DX001 (ip), vehicle: saline
[14] = dose: 100.0 mg/kg/injection, schedule: Q04DX003 (ip), vehicle: Klucel (hydroxypropylcellulose) (HPC)
[15] = dose: 200.0 mg/kg/injection, schedule: Q04DX003 (ip), vehicle: Klucel (hydroxypropylcellulose) (HPC)
[16] = dose: 400.0 mg/kg/injection, schedule: Q04DX003 (ip), vehicle: Klucel (hydroxypropylcellulose) (HPC)
[17] = dose: 100.0 mg/kg/injection, schedule: Q01DX009 (ip), vehicle: Klucel (hydroxypropylcellulose) (HPC)
[18] = dose: 200.0 mg/kg/injection, schedule: Q01DX009 (ip), vehicle: Klucel (hydroxypropylcellulose) (HPC)
[19] = dose: 200.0 mg/kg/injection, schedule: Q04DX003 (ip), vehicle: saline with Tween-80
[20] = dose: 400.0 mg/kg/injection, schedule: Q04DX003 (ip), vehicle: saline with Tween-80

## O=C1CCCc2c1cc(C1CCCC1)c1ccccc21
[1]
  T/C: 92 % of control
[2]
  T/C: 95 % of control
[3]
  T/C: 98 % of control

## CC/C(C)=N/Nc1ccc([N+](=O)[O-])cc1[N+](=O)[O-]
[4]
  T/C: 94 % of control
[5]
  T/C: 94 % of control
[6]
  T/C: 97 % of control

## CN(C)NP(=O)(Nc1ccccc1)Nc1ccccc1
dose: 100.0 mg/kg/injection, schedule: Q01DX009 (ip), vehicle: carboxymethylcellulose (CMC)
  T/C: 103 % of control
dose: 200.0 mg/kg/injection, schedule: Q01DX009 (ip), vehicle: carboxymethylcellulose (CMC)
  T/C: 93 % of control
dose: 400.0 mg/kg/injection, schedule: Q01DX009 (ip), vehicle: carboxymethylcellulose (CMC)
  T/C: 98 % of control

## Cc1cc2ccccc2nc1-c1ccccc1F
[7]
  T/C: 97 % of control
[8]
  T/C: 94 % of control
[9]
  T/C: 88 % of control

## O=C(CCl)NCCCNC(=O)CCl
dose: 6.25 mg/kg/injection, schedule: Q01DX009 (ip), vehicle: other
  T/C: 94 % of control
dose: 12.5 mg/kg/injection, schedule: Q01DX009 (ip), vehicle: other
  T/C: 94 % of control
dose: 25.0 mg/kg/injection, schedule: Q01DX009 (ip), vehicle: other
  T/C: 94 % of control
[10]
  T/C: 98 % of control
[11]
  T/C: 102 % of control
[12]
  T/C: 111 % of control

## Cc1ccc(-n2c(=O)c(N=Nc3ccc(Br)cc3)c(O)n(-c3ccccc3C)c2=S)cc1
dose: 100.0 mg/kg/injection, schedule: Q01DX001 (ip), vehicle: Klucel (hydroxypropylcellulose) (HPC)
  T/C: 95 % of control
dose: 200.0 mg/kg/injection, schedule: Q01DX001 (ip), vehicle: Klucel (hydroxypropylcellulose) (HPC)
  T/C: 88 % of control
dose: 400.0 mg/kg/injection, schedule: Q01DX001 (ip), vehicle: Klucel (hydroxypropylcellulose) (HPC)
  T/C: 88 % of control

## CC1=NN(c2ccc(S(=O)(=O)O)cc2)C(=O)/C1=C/C(C#N)C#N
[13]
  T/C: 105 % of control
[7]
  T/C: 98 % of control
[14]
  T/C: 92 % of control
[8]
  T/C: 108 % of control
[15]
  T/C: 105 % of control
[9]
  T/C: 108 % of control
[16]
  T/C: 94 % of control

## Nc1ccc(NC(=S)Nc2ccccc2)cc1
[17]
  T/C: 104 % of control
[14]
  T/C: 93 % of control
[18]
  T/C: 101 % of control
[15]
  T/C: 95 % of control
dose: 400.0 mg/kg/injection, schedule: Q01DX009 (ip), vehicle: Klucel (hydroxypropylcellulose) (HPC)
  T/C: 97 % of control
[16]
  T/C: 92 % of control

## CCC1(OC(C)=O)C(=O)OCc2c1cc1n(c2=O)Cc2cc3ccccc3nc2-1 (centres undefined)
dose: 0.13 mg/kg/injection, schedule: Q01DX009 (ip), vehicle: carboxymethylcellulose (CMC)
  T/C: 96 % of control
dose: 0.13 mg/kg/injection, schedule: Q01DX Z (ip), vehicle: water
  T/C: 93 % of control
dose: 0.22 mg/kg/injection, schedule: Q01DX Z (ip), vehicle: water
  T/C: 116 % of control
dose: 0.25 mg/kg/injection, schedule: Q01DX009 (ip), vehicle: carboxymethylcellulose (CMC)
  T/C: 96 % of control
dose: 0.36 mg/kg/injection, schedule: Q01DX Z (ip), vehicle: water
  T/C: 108 % of control
dose: 0.5 mg/kg/injection, schedule: Q01DX009 (ip), vehicle: carboxymethylcellulose (CMC)
  T/C: 91 % of control
dose: 1.0 mg/kg/injection, schedule: Q01DX009 (ip), vehicle: carboxymethylcellulose (CMC)
  T/C: 104 % of control
dose: 1.0 mg/kg/injection, schedule: Q01DX Z (ip), vehicle: water
  T/C: 114 % of control
dose: 2.0 mg/kg/injection, schedule: Q01DX009 (ip), vehicle: carboxymethylcellulose (CMC)
  T/C: 91 % of control

## Cc1cc2c(C)c3nc4ccccc4c3c(C)c2c[nH]1
[13]
  T/C: 107 % of control
[7]
  T/C: 98 % of control
[8]
  T/C: 101 % of control
[9]
  T/C: 107 % of control
dose: 800.0 mg/kg/injection, schedule: Q01DX001 (ip), vehicle: saline
  T/C: 110 % of control
dose: 1600.0 mg/kg/injection, schedule: Q01DX001 (ip), vehicle: saline
  T/C: 118 % of control

## O=[N+]([O-])c1cc(Br)cc2c1nc(NCCO)c1ccccc12
[14]
  T/C: 103 % of control
[15]
  T/C: 119 % of control
[16]
  T/C: 101 % of control

## CS(=O)(=O)O/C=C1\C(=O)OC2CCCCC12 (centres undefined)
dose: 12.5 mg/kg/injection, schedule: Q01DX009 (ip), vehicle: water
  T/C: 111 % of control
dose: 25.0 mg/kg/injection, schedule: Q01DX009 (ip), vehicle: water
  T/C: 105 % of control
dose: 50.0 mg/kg/injection, schedule: Q01DX009 (ip), vehicle: water
  T/C: 100 % of control
dose: 100.0 mg/kg/injection, schedule: Q01DX009 (ip), vehicle: water
  T/C: 105 % of control
dose: 200.0 mg/kg/injection, schedule: Q01DX009 (ip), vehicle: water
  T/C: 106 % of control

## O=S(c1cc(Cl)cc(Cl)c1O)c1cc(Cl)cc(Cl)c1O
dose: 50.0 mg/kg/injection, schedule: Q01DX001 (ip), vehicle: carboxymethylcellulose (CMC)
  T/C: 95 % of control
[1]
  T/C: 98 % of control
[2]
  T/C: 101 % of control
[3]
  T/C: 114 % of control

## NC(=O)CCNCCSC(=O)c1ccccc1
[12]
  T/C: 102 % of control
[19]
  T/C: 100 % of control
[20]
  T/C: 96 % of control

## Ic1cccc2cc3cccc[n+]3cc12
dose: 9.9 mg/kg/injection, schedule: Q01DX Z (ip), vehicle: carboxymethylcellulose (CMC)
  T/C: 102 % of control
dose: 14.6 mg/kg/injection, schedule: Q01DX Z (ip), vehicle: carboxymethylcellulose (CMC)
  T/C: 103 % of control
dose: 22.0 mg/kg/injection, schedule: Q01DX Z (ip), vehicle: carboxymethylcellulose (CMC)
  T/C: 91 % of control

## CC(C)OP(=O)(OC(C)C)C1=C(P(=O)(OC(C)C)OC(C)C)C(F)(F)C(F)(F)C1(F)F
dose: 9.5 mg/kg/injection, schedule: Q01DX001 (ip), vehicle: other
  T/C: 106 % of control
dose: 19.0 mg/kg/injection, schedule: Q01DX001 (ip), vehicle: other
  T/C: 95 % of control
dose: 38.0 mg/kg/injection, schedule: Q01DX001 (ip), vehicle: other
  T/C: 89 % of control

## COc1cc(O)c2c(c1)C(=O)c1cc3c(c(O)c1C2=O)C(OC1OC(C)C(O)C(O)C1OC)C(OC)C(C)(O)C3=O (centres undefined)
[7]
  T/C: 92 % of control
[8]
  T/C: 103 % of control
[9]
  T/C: 97 % of control

## COc1ccc(C(=O)C(C)C(C)=O)c(OCc2ccccc2)c1OC (centres undefined)
[1]
  T/C: 96 % of control
[2]
  T/C: 98 % of control
[3]
  T/C: 93 % of control

## CC(=O)Nc1c(Cl)cc2c(c1Cl)Cc1cc(N=Cc3ccc4c(c3)OCO4)ccc1-2
[4]
  T/C: 91 % of control
[5]
  T/C: 101 % of control
[6]
  T/C: 100 % of control

## CSc1ncnc2c1ncn2N1CCCC1COS(=O)(=O)c1ccc(C)cc1 (centres undefined)
dose: 100.0 mg/kg/injection, schedule: Q01DX001 (ip), vehicle: DMSO
  T/C: 96 % of control
dose: 200.0 mg/kg/injection, schedule: Q01DX001 (ip), vehicle: DMSO
  T/C: 90 % of control
dose: 400.0 mg/kg/injection, schedule: Q01DX001 (ip), vehicle: DMSO
  T/C: 95 % of control

## CNC(C)COc1ccccc1 (centres undefined)
dose: 25.0 mg/kg/injection, schedule: Q01DX009 (ip), vehicle: saline
  T/C: 101 % of control
[10]
  T/C: 94 % of control
dose: 50.0 mg/kg/injection, schedule: Q01DX009 (ip), vehicle: saline
  T/C: 98 % of control
[11]
  T/C: 91 % of control
[12]
  T/C: 95 % of control

## c1ccc(N(c2ccccc2)C(c2ccccc2)(c2ccccc2)c2ccccc2)cc1
dose: 25.6 mg/kg/injection, schedule: Q04DX002 (ip), vehicle: saline with Tween-80
  T/C: 93 % of control
dose: 64.0 mg/kg/injection, schedule: Q04DX002 (ip), vehicle: saline with Tween-80
  T/C: 104 % of control
[12]
  T/C: 89 % of control
dose: 160.0 mg/kg/injection, schedule: Q04DX002 (ip), vehicle: saline with Tween-80
  T/C: 95 % of control
[19]
  T/C: 92 % of control
dose: 400.0 mg/kg/injection, schedule: Q04DX002 (ip), vehicle: saline with Tween-80
  T/C: 95 % of control
[20]
  T/C: 685 % of control

## COc1cc2ccc(C(C)NCC#N)cc2cc1OC (centres undefined)
[17]
  T/C: 97 % of control
[14]
  T/C: 88 % of control
[18]
  T/C: 101 % of control
[15]
  T/C: 93 % of control
[16]
  T/C: 106 % of control
